Test results: PMC7796031, “Studies of Coumarin Derivatives for Constitutive Androstane Receptor (CAR) Activation” (Molecules, 2020)

What was measured:
[1] = target: T1, Constitutive androstane receptor (CAR) (Homo sapiens, UniProt Q14994); test: In vitro CAR activation screening assay (UGT1A1 promoter gtPBREM-pGL4 luciferase reporter in Hep3B-gtPBREM cells); format: cell-based
T1 construct: The pGL4-gtPBREM plasmid was transfected into Hep3B cells; endogenous in cells
T1 sequence (Q14994 1-352): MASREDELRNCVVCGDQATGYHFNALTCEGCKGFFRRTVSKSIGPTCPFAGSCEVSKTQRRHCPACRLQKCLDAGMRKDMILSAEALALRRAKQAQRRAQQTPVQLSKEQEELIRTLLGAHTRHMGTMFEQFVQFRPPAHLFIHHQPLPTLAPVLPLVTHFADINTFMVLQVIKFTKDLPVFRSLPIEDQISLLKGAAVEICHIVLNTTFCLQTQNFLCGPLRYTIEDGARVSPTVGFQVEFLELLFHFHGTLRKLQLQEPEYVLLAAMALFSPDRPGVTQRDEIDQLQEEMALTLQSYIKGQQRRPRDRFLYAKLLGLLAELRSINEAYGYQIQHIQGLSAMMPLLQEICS
Description: Until now, there is no commercially available high throughput screening method for CAR activation. Traditionally, CAR activation can be detected in western blots by its downstream signals such as UGT1A1, MRP2 or CYP2B6. […] However, this method was slow and pricy. In order to rapidly screen all the compounds for CAR activation at less cost, an in vitro CAR activation screening assay was developed: DNA was extracted from Hep3B cells and UGT1A1 promoter was obtained using PCR amplification. Ligation between UGT1A1 promoter and pGL4 vector was performed and the plasmid was amplified via E. coli replication. The desired plasmid was extracted from E. coli and transfected into Hep3B. The desired colony bearing UGT1A1 promoter-pGL4 plasmid was selected by neomycin. CAR activation was measured by adding tested compounds to Hep3B for several hours and luminescence was measured. Higher activation will get higher luminescence readout. This assay system was validated with two different CAR agonists: CITCO (direct agonist) and scoparone (an indirect agonist). […] Different concentration of scoparone at 1, 5, 10 and 20 μM had been tested either for luciferase assay or downstream UGT1A1 and MRP2 expression (data not shown) and 10 μM was selected to be the best condition for the following work.
After successfully establishing the in vitro assay, all of the coumarin compounds were subjected to the screening (at 10 μM) and their SAR was discussed. Although the reporter system can successfully identify CAR-activating compounds under 8 h and display better efficiency and sensitivity compared with western blots, it only presented a medium luciferase response. According to previous studies, CITCO was reported to only moderately enhance human CAR (less than 2-fold), compared with the enhance provided by TCPOBOP for murine CAR (5- to 10-fold) in luciferase reporter assays. […] Another possibility for the medium response in our reporter system might be the contribution of the whole gtPBREM element which might include response-suppressive elements that was used and the single nucleotide variation of DR3 element which was reported to slightly reduce the original UGT1A1 activity.
The genomic DNA was isolated from Hep3B cells using Wizard® Genomic DNA Purification Kit (Promega, Fitchburg, WI, USA). The promoter region of UGT1A1 gene, gtPBREM element, was amplified by AccuPrime^TM Taq DNA Polymerase High Fidelity Kit (Invitrogen, MA, USA). The sequence of the amplified element was confirmed by DNA sequencing company and cloned into pGL4 luciferase reporter vector. The pGL4-gtPBREM plasmid was transfected into Hep3B cells. The stable pGL4-gtPBREM transfected Hep3B cells, Hep3B-gtPBREM cells, were established after G418 selection. The luciferase activity represented of CAR activation ability was measured using individual established clone. Further, CAR-shRNA was obtained from the Genomic Research Center and transfected into Hep3B-gtPBREM cells. The transient transfected shCAR-Hep3B-gtPBREM cells were used for further luciferase assays.
The Hep3B-gtPBREM cells and shCAR-Hep3B-gtPBREM cells (1.5 × 10^5 cells/well) were seeded into 12-well plates for overnight then pre-determined concentration compounds were added for desired time. After treatment, transfected cells were washed twice in PBS, lysated with 1× passive lysis buffer and luciferase intensity of equal amount of cell lysate was measured by a Synergy HT Multi-Mode Microplate Reader (BioTek, Winooski, VT, USA).

db/db mice = test: In vivo hypoglycemic effect in db/db mice (OGTT, fructosamine, insulin, HOMA-IR); parameters: species or system mouse
Experimental: Six-week old male C57/BL6 mice (n = 6) were acquired from the Animal Center of the College of Medicine, National Taiwan University (Taipei, Taiwan) and 6-week-old male db/db mice (BKS.Cg-Dock7m +/+ Leprdb/JNarl) (n = 12) were acquired from the National Laboratory Animal Center (Tainan, Taiwan). Experimental animals were allowed to acclimate to the controlled photoperiod (a cycle of 12-h light/12-h dark), humidity (40–60% relative humidity) and temperature (22 ± 2 °C) with ad libitum supply of standard chow diets and drinking water for one week prior to the experimental treatment in accordance with the Guide for the Care and Use of Laboratory Animals (Institute of Laboratory Animal Resources Commission on Life Sciences, 2011). Acclimated animals were randomly separated into three cohorts: control group (C57/BL6 mice treated with vehicle for two weeks, n = 6), db/db group (db/db mice treated with vehicle for two weeks, n = 6), and db/db+SP group (db/db mice treated with 100 mg/kg scoparone for two weeks, n = 6). (IACUC Approval NO.: 20140532; Duration: 2015.01.01–2015.12.31; Ethical Committee: National Taiwan University College of Medicine and College of Public Health Institutional Animal Care and Use Committee (IACUC).)
The control mice or diabetic mice with or without drugs treatment for 2 weeks received an oral glucose challenge (2 g/kg). Mice were under slight anesthesia by an intraperitoneal injection of pentobarbital (50 mg/kg) and blood samples (20–50 μL via orbital sinus at each time point) were collected following: 0, 15, 30, 60, 90, and 120 min after delivery of the glucose load. Blood glucose levels were determined using SURESTEP blood glucose meter (Lifescan). Glucose tolerance was determined and performed as the curve (AUC) and delta AUC (ΔAUC) using Prism 5 software (GraphPad).
To determine the amount of insulin and fructosamine after fasting overnight, blood samples (0.5–0.8 mL) of euthanasia animals were collected. After centrifugation, the serum was analyzed by insulin and fructosamine immunoassay kits according to the respective instructions of the manufacturer (Mercodia AB Inc., Uppsala, Sweden; Hospitex Diagnostics Lp, League City, TX, USA). The homeostasis model assessment of insulin resistance (HOMA-IR) index is calculated with the formula of the values of fasting glucose and insulin divided by 22.5 as previously described.

[2] = db/db mice, 100 mg/kg P.O., two weeks

| Compound | increased CAR activation fold ([1]; 10 μM, compared to scoparone) | activation at 10 µM ([1]; Table 2, 10 μM, (luminescence of compound − luminescence of scoparone)/luminescence of scoparone × 100%, read-out: CAR Activation Fold) | in vivo efficacy (blood sugar lowering) (db/db mice; even by intraperitoneal injection) | luciferase activity ([1]; assay validation, positive control, indirect agonist) | HOMA-IR (db/db mice; [2]) | insulin level (db/db mice; [2]) | level of fructosamine (db/db mice; [2]) | oral glucose tolerance test (OGTT) (db/db mice; [2]) |
| --- | --- | --- | --- | --- | --- | --- | --- | --- |
| CC(C)=CCOc1cc2ccc(=O)oc2cc1OCC=C(C)C [Compound 50, 6,7-diprenoxycoumarin] | 50% | 50% | didn’t show any in vivo efficacy | – | – | – | – | – |
| COc1cc2ccc(=O)oc2cc1OC [Compound 39, scoparone] | – | – | – | enhance luciferase activity | did not change | did not change | decreased | significant improvement |
